Experimental data as given in patent US8030300B2, “Ligands for nicotinic acetylcholine receptors, and methods of making and using them” (priority 2003, dated 2011).
Where two headings read alike, the source gives them in different places.

Assays:
Experiment in all cases: biochemical
Format in all cases: binding
α4β4 nAChR subtype = target: T1, α4β4 nAChR subtype (Rattus norvegicus, UniProt P09483+P12392)
T1 construct: expressed in transfected cells
Description: (§1) In order to assess the steric and hydropathic effects of the C-5 substituents of the pyridine on the binding affinity and subtype-selectivity at neuronal nicotinic acetylcholine receptors. […] The binding affinity ratios for a ligand, calculated from its affinities at an α subunit paired with either the β2 osubunit or the β4 subunit, represents a measure of the selectivity of that ligand with regard to the β subunits.

α3β2 nAChR subtype = target: T2, α3β2 nAChR subtype (Rattus norvegicus, UniProt P04757+P12390)
T2 construct: expressed in transfected cells
T2 sequence (P12390 25-500): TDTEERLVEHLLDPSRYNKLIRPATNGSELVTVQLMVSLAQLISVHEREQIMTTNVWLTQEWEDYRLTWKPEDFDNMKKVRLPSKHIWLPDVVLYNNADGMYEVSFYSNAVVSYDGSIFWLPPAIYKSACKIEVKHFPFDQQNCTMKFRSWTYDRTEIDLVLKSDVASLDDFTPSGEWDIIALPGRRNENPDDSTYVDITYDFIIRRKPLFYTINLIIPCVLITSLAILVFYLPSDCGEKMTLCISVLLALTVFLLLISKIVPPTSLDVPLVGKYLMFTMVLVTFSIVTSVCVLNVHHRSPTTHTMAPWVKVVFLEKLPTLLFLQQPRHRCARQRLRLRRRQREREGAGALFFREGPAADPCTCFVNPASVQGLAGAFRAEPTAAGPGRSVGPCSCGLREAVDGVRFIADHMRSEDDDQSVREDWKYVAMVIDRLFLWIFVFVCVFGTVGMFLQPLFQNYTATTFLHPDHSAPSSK
T2 sequence (P04757 26-499): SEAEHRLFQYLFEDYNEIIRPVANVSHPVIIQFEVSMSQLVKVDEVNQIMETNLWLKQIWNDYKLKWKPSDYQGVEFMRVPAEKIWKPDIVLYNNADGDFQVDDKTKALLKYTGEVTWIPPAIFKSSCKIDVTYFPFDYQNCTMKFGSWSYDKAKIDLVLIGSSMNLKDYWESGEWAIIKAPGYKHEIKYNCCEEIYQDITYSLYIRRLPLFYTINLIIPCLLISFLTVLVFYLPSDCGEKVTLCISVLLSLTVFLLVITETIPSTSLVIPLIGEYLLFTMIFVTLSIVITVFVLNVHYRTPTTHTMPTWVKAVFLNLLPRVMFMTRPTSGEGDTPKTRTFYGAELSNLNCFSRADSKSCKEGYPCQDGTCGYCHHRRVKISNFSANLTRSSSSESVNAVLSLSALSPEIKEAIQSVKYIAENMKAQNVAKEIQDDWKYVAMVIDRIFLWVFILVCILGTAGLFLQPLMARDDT
Description: as §1

α2β4 nAChR subtype = target: T3, α2β4 nAChR subtype (Rattus norvegicus, UniProt P12389+P12392)
T3 construct: expressed in transfected cells
T3 sequence (P12389 28-511): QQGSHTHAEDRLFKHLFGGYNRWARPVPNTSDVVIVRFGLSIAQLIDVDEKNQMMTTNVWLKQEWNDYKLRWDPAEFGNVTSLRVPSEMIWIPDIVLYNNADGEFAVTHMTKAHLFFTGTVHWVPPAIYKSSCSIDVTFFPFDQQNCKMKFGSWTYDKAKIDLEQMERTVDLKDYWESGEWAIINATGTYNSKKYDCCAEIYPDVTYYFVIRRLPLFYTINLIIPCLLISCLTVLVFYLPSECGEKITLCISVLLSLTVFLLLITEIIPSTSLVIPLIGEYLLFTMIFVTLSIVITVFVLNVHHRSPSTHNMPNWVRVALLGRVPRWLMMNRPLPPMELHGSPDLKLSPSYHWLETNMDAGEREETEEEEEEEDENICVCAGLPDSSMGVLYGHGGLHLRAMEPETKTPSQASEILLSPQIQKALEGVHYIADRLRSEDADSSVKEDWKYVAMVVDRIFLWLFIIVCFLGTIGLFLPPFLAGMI
T3 sequence (P12392 21-495): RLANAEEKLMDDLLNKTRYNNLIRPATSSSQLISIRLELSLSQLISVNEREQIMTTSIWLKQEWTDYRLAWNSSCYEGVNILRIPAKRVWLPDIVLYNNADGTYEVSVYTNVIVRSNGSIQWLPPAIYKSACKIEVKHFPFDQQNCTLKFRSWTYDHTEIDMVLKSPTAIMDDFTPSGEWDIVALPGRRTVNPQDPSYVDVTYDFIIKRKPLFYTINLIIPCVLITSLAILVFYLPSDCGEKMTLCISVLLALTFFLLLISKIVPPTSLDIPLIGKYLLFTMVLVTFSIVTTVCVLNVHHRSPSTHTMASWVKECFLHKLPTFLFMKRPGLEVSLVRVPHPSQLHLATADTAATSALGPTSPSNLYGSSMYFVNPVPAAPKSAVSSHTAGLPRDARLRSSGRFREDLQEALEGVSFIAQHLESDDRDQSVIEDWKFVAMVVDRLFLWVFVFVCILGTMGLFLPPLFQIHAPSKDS
Description: as §1

α3β4 nAChR subtype = target: T4, α3β4 nAChR subtype (Rattus norvegicus, UniProt P04757+P12392)
T4 construct: expressed in transfected cells
T4 sequence (P04757 26-499): as the sequence (P04757 26-499) above
T4 sequence (P12392 21-495): as the sequence (P12392 21-495) above
Description: as §1

α4β2 nAChR subtype = target: T5, α4β2 nAChR subtype (Rattus norvegicus, UniProt P09483+P12390)
T5 construct: expressed in transfected cells
T5 sequence (P12390 25-500): as the sequence (P12390 25-500) above
T5 sequence (P09483 31-630): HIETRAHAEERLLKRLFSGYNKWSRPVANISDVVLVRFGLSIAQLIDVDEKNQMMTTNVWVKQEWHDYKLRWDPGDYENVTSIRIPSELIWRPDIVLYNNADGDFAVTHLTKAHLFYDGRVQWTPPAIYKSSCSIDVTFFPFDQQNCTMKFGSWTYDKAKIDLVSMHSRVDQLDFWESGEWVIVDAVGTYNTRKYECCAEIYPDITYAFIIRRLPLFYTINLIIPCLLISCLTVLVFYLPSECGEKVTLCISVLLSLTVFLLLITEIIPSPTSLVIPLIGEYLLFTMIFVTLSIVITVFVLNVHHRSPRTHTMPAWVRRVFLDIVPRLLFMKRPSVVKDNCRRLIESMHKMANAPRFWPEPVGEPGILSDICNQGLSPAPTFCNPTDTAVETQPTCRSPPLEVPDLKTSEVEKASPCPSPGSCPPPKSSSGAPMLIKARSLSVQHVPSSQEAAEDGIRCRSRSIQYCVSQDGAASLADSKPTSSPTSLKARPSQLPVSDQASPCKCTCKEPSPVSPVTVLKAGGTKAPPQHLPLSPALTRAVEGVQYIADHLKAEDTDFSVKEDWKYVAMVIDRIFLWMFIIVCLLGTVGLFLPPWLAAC
Description: as §1

α2β2 nAChR subtype = target: T6, α2β2 nAChR subtype (Rattus norvegicus, UniProt P12389+P12390)
T6 construct: expressed in transfected cells
T6 sequence (P12390 25-500): as the sequence (P12390 25-500) above
T6 sequence (P12389 28-511): as the sequence (P12389 28-511) above
Description: as §1

[1] = target: T7, receptors in rat forebrain (mainly α4β2) (Rattus norvegicus, UniProt P09483+P12390)
T7 construct: from tissue; host or cells: rat forebrain homogenate
T7 sequence (P09483 31-630): as the sequence (P09483 31-630) above
T7 sequence (P12390 25-500): as the sequence (P12390 25-500) above
Description: as §1
In Vitro Inhibition of ^3H-Epibatidin Binding
The high affinity binding site for ^3H-epibatidin is most certainly binding to the α4β2 subtype of nicotinic receptors. The identity of the low affinity site is still believed to be unknown.
Tissue preparation: Preparations may be performed at 0-4° C. unless otherwise indicated. […] The tissue suspension may then be centrifuged at 27,000×g for 10 min. The supernatant is then discarded and the pellet may then be washed three times by centrifugation at 27,000×g for 10 min in 20 mL fresh buffer, and the final pellet may be resuspended in fresh buffer (400 mL per g of original tissue) and used for binding assays.
Assay: Aliquots of 2.0 mL homogenate may be added to 0.100 mL of test solution and 0.100 mL of ^3H-epibatidin (0.3 nM, final concentration), mixed and incubated for 60 min at room temperature. […] The amount of radioactivity on the filters may be determined by conventional liquid scintillation counting. Specific binding is total binding minus non-specific binding.

[2] = Table 5, rat nAChR subtypes, read-out: Ki α4β4
[3] = Table 5, rat nAChR subtypes, read-out: Ki α3β2
[4] = Table 5, rat nAChR subtypes, read-out: Ki α2β4
[5] = Table 5, rat nAChR subtypes, read-out: Ki α3β4
[6] = Table 5, rat nAChR subtypes, read-out: Ki α4β2
[7] = Table 5, rat nAChR subtypes, read-out: Ki α2β2
[8] = Table 5, *Rat forebrain, mainly α4β2, read-out: Ki α4β2*
[9] = Ki α4β4, Table 5, rat nAChR subtypes
[10] = Ki α3β2, Table 5, rat nAChR subtypes
[11] = Ki α2β4, Table 5, rat nAChR subtypes
[12] = Ki α3β4, Table 5, rat nAChR subtypes
[13] = Ki α4β2, Table 5, rat nAChR subtypes
[14] = Ki α2β2, Table 5, rat nAChR subtypes
[15] = Ki α4β2*, Table 5, *Rat forebrain, mainly α4β2

T1 sequence (P12392 21-495): as the sequence (P12392 21-495) above
T1 sequence (P09483 31-630): as the sequence (P09483 31-630) above

Row | Molecule | Ki (α3β4 nAChR subtype; [5]) [nM] | Ki (α4β4 nAChR subtype; [9]) [nM] | Ki (α3β2 nAChR subtype; [10]) [nM] | Ki (α2β4 nAChR subtype; [11]) [nM] | Ki (α3β4 nAChR subtype; [12]) [nM] | Ki (α4β2 nAChR subtype; [13]) [nM] | Ki (α2β2 nAChR subtype; [14]) [nM] | Ki [1, 15] [nM] | other results
1 | Decane-1,3-N,N′-bisepibatidine [Ligand 59d] | 67.7 | – | – | – | – | – | – | – | Ki (α4β4 nAChR subtype; [2]): 18.7 nM; Ki (α3β2 nAChR subtype; [3]): 6.75 nM; Ki (α2β4 nAChR subtype; [4]): 24.2 nM; Ki (α4β2 nAChR subtype; [6]): 10.3 nM; Ki (α2β2 nAChR subtype; [7]): 5.78 nM; Ki [1, 8]: 13.9 nM
2 | OC1CC2NC1CC2c1ccc(Cl)nc1 (stereo not drawn) [Ligand 7, 2-exo-(2-Chloro-5-pyridyl)-5-endo-hydroxyl-7-azabicyclo[2.2.1]heptane] | – | 247 | 285 | 238 | 916 | 70.9 | 93.7 | 134 | –
3 | FC1CC2CC(c3ccc(Cl)nc3)C1N2 (stereo not drawn) [Ligand 11, 2-exo-(2-Chloro-5-pyridyl)-6-fluoro-7-azabicyclo[2.2.1]heptane] | – | 0.172 | 0.149 | 0.481 | 2.48 | 0.328 | 0.218 | 0.668 | –
4 | CCCCC#Cc1cncc(OC[C@@H]2CCCN2C)c1 [Ligand 12, 5-(1-Hexynyl)-3-(1-methyl-2(S)-pyrrolidinylmethoxy)pyridine] | 9560 | – | – | – | – | – | – | – | Ki (α4β4 nAChR subtype; [2]): 1410 nM; Ki (α3β2 nAChR subtype; [3]): 20.3 nM; Ki (α2β4 nAChR subtype; [4]): 1720 nM; Ki (α4β2 nAChR subtype; [6]): 2.61 nM; Ki (α2β2 nAChR subtype; [7]): 13.4 nM; Ki [1, 8]: 6.81 nM
5 | FCCCCC#Cc1cncc(OC[C@@H]2CCN2)c1 [Ligand 41, 5-(6-Fluoro-1-hexynyl)-3-(2(S)-azetidinylmethoxy)pyridine] | – | 118 | 0.635 | 197 | 5490 | 0.201 | 0.796 | 0.362 | –
6 | Hexane-1,3-N,N′-bisepibatidine [Ligand 59c] | 64.7 | – | – | – | – | – | – | – | Ki (α4β4 nAChR subtype; [2]): 31.9 nM; Ki (α3β2 nAChR subtype; [3]): 6.61 nM; Ki (α2β4 nAChR subtype; [4]): 37.4 nM; Ki (α4β2 nAChR subtype; [6]): 7.2 nM; Ki (α2β2 nAChR subtype; [7]): 4.12 nM; Ki [1, 8]: 14.2 nM
7 | OC1C2CCC(N2)C1c1ccc(Cl)nc1 (single isomer, unassigned) [Ligand 3, 2-exo-(2-Chloro-5-pyridyl)-3-endo-hydroxyl-7-azabicyclo[2.2.1]heptane] | – | 11.2 | 7.31 | 15.3 | 39.1 | 2.92 | 2.49 | 4.79 | –
8 | CN1CCC[C@H]1COc1cncc(C#CCCCCCCCCO)c1 [Ligand 17] | – | – | – | – | – | – | – | – | Ki (α4β4 nAChR subtype; Ki α4β4, Table 1, mean of 3 (1, 2: 3 to 6) independent measurements): 3560 nM; Ki (α3β2 nAChR subtype; Ki α3β2, Table 1, mean of 3 (1, 2: 3 to 6) independent measurements): 52.1 nM; Ki (α2β4 nAChR subtype; Ki α2β4, Table 1, mean of 3 (1, 2: 3 to 6) independent measurements): 7800 nM; Ki (α3β4 nAChR subtype; Ki α3β4, Table 1, mean of 3 (1, 2: 3 to 6) independent measurements): 62700 nM; Ki (α4β2 nAChR subtype; Ki α4β2, Table 1, mean of 3 (1, 2: 3 to 6) independent measurements): 6.5 nM; Ki (α2β2 nAChR subtype; Ki α2β2, Table 1, mean of 3 (1, 2: 3 to 6) independent measurements): 26.8 nM; Ki ([1]; Ki Rat forebrain, Table 1, mean of 3 (1, 2: 3 to 6) independent measurements): 21.7 nM
9 | c1cncc(OC[C@@H]2CCN2)c1 [Ligand A-85380, reference compound] | – | 8.04 | 0.208 | 18.4 | 77.7 | 0.142 | 0.073 | 0.248 | Ki (α4β4 nAChR subtype; Ki α4β4, Table 6, [3H]-EB 0.099 nM, 0.091 nM, ligand 0.00197-100 μM, n = 1): 8.04 nM; Ki (α3β2 nAChR subtype; Ki α3β2, Table 6, [3H]-EB 0.099 nM, 0.091 nM, ligand 0.00197-100 μM, n = 1): 0.208 nM; Ki (α2β4 nAChR subtype; Ki α2β4, Table 6, [3H]-EB 0.099 nM, 0.091 nM, ligand 0.00197-100 μM, n = 1): 18.4 nM; Ki (α3β4 nAChR subtype; Ki α3β4, Table 6, [3H]-EB 0.099 nM, 0.091 nM, ligand 0.00197-100 μM, n = 1): 77.7 nM; Ki (α4β2 nAChR subtype; Ki α4β2, Table 6, [3H]-EB 0.099 nM, 0.091 nM, ligand 0.00197-100 μM, n = 1): 0.142 nM; Ki ([1]; Ki α4β2**, Table 6, **Forebrain mainly α4β2, [3H]-EB 0.099 nM, 0.091 nM, n = 1): 0.248 nM
10 | O=c1cccc2n1C[C@@H]1CNC[C@H]2C1 [Cytisine, reference compound] | 210 | – | – | – | – | – | – | – | Ki (α4β4 nAChR subtype): 1.52 nM; Ki (α3β2 nAChR subtype): 8.06 nM; Ki (α2β4 nAChR subtype): 3.51 nM; Ki (α4β2 nAChR subtype): 1.35 nM; Ki (α2β2 nAChR subtype): 0.571 nM; Ki [1]: 2.57 nM
11 | OC1CC2CC(c3ccc(Cl)nc3)C1N2 (stereo not drawn) [Ligand 8, 2-exo-(2-Chloro-5-pyridyl)-6-exo-hydroxyl-7-azabicyclo[2.2.1]heptane] | – | 45.6 | 8.88 | 39.7 | 144 | 12.6 | 6.3 | 22.9 | –
12 | CN1CCC[C@H]1COc1cncc(C#CCNC(=O)OC(C)(C)C)c1 [Ligand 13] | – | – | – | – | – | – | – | – | Ki (α4β4 nAChR subtype): 8280 nM; Ki (α3β2 nAChR subtype): 7.27 nM; Ki (α2β4 nAChR subtype): 8240 nM; Ki (α3β4 nAChR subtype): 59900 nM; Ki (α4β2 nAChR subtype): 2.07 nM; Ki (α2β2 nAChR subtype): 1.19 nM; Ki [1]: 3.71 nM
